Data reported in patent publication EP2545917B1, “NOVEL EP4 AGONIST” (Kaken Pharmaceutical Co., Ltd., priority 2010, dated 2011).

Experiments:
[1] = Plasma pharmacokinetics after intravenous administration to rats; assay type: in vivo; details: male, rat
Protocol: To verify the in vivo metabolic stability of the compound of the present invention, plasma pharmacokinetics was evaluated after intravenous administration to rats. Male rats (6 weeks old, body weight 160 - 180 g) were acclimated for 1 week, and the animals diagnosed healthy were used. A mixture of compound F and compound J of the present invention described in Table 1 (F:J = 52:41), and a mixture of carboxylate forms of compound F and compound J (F:J = 54:34), and compound F (synthesized in Example 9) were dissolved in a small amount of ethanol and physiological saline was added to prepare test compound solutions. The test compound solutions were instantaneously administered intravenously at 1 mL/kg from the femoral vein of non-fasting rats under light ether anesthesia. Venous blood was drawn from the tail vein 5, 15, 30, 45, 60, 90 and 120 min after administration. The blood was mixed with heparin and centrifuged (3000 rpm, 4°C, 15 min) to obtain plasma. The plasma compound concentration was determined by the internal standard method using LC-MS/MS. The determination range by this method was from 0.1 to 100 ng/mL. The compound concentrations obtained from each rat were analyzed in a model-independent way using a pharmacokinetics analysis software WinNonlin (ver.3.3), and average ± standard deviation of 3 animals for each group was obtained.

[2] = test system: dextran sodium sulfate-induced colitis; experiment: Prophylactic effect on dextran sodium sulfate-induced colitis in rats; assay type: in vivo; details: SD rats, 5.5 w/v% DSS, oral 1 mg/kg and 3 mg/kg once a day
Protocol: Prophylactic effect of compound F on colitis was also studied in rats. Male SD rats, 7 weeks old, body weight around 210 g - 240 g (Charles River) were purchased, acclimated for 1 week and used for the study. Except the normal group, the rats were allowed to freely drink a DSS (MP Biochemicals, M.W. 36,000-50,000, Lot No. 4556J) solution prepared to 5.5 w/v% for 8 days to induce colitis. Compound F at doses of 0.3, 1 and 3 mg/kg was orally administered once a day, daily, from one day before the start day of DSS drinking to one day before autopsy (day 7). To the control group was orally administered a solvent (1 vol% ethanol solution) at 5 mL/kg.
On day 8 from the start of DSS drinking, 1.25 w/v% Evans blue solution was administered at 0.2 mL/100 g from the tail vein. After 30 min, the rats were subjected to laparotomy under ether anesthesia and exsanguinated to death. Thereafter, the large intestine was dissected from just below the cecum to the anus, and the length was measured with a scale. […] The next day, the dry weight was measured, formamide (2 mL) was added, the dye was extracted at 50°C overnight, and the level thereof was measured at 620 nm. A standard curve was prepared using an Evans blue standard solution, and the amount (mg) of Evans blue in 1 g of the colonic tissue was calculated to estimate degree of colonic tissue injury. […]

[3] = target: T1, Human EP4 (Homo sapiens, UniProt P35408); experiment: Receptor affinity, tritium-labeled PGE2 binding to membranes of transfected COS-7 cells
T1 construct: expressed in transfected cells; host or cells: COS-7
T1 sequence (P35408 whole entry): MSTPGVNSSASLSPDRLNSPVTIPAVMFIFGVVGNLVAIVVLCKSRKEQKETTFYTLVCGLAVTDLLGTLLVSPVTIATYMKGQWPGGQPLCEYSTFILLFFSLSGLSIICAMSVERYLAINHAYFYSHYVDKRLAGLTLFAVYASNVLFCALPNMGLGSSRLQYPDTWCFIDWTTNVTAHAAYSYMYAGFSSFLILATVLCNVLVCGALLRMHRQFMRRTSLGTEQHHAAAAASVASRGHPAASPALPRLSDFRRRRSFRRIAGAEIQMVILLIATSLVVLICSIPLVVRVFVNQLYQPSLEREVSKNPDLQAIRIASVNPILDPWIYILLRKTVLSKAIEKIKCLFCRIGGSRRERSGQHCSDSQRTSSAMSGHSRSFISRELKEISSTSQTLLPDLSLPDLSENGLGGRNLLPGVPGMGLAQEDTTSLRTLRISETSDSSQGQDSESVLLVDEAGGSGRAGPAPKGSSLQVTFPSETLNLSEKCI
Protocol: (§1) COS-7 cells were transfected with the genes of mouse EP4, human EP1-4 or human IP to overexpress the receptor and then the cell membranes were collected. […] The dissociation constant Kd value was obtained and inhibition constant Ki value of each test compound was determined in a conventional method.

[4] = target: T2, Human EP3 (Homo sapiens, UniProt P43115); experiment: as above
T2 construct: expressed in transfected cells; host or cells: COS-7
T2 sequence (P43115 1-390): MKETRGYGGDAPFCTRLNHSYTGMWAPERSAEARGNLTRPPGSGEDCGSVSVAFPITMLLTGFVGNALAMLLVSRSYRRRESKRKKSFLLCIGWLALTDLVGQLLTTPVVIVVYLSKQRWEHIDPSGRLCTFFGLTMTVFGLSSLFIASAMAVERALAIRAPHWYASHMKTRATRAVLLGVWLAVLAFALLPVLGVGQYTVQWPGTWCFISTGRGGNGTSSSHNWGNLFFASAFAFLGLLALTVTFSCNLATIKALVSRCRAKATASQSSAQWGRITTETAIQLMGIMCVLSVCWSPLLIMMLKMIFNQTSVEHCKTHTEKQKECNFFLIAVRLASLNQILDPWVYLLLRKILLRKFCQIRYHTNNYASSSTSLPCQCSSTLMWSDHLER
Protocol: as §1

[5] = test system: eye; experiment: Local irritative effect on the eye in rabbits; assay type: in vivo, Japanese white rabbits; details: single instillation, left eye
Protocol: Japanese white rabbits (male, 10 weeks old, BIOTEC Co., Ltd.) were purchased, acclimated for 1 week and used for the study. Compound F solution (0.01 w/v%) was instilled once into the cornea of both eyes at a volume of 50 µL/eye with a micropipette. The intraocular pressure of the right eye was measured and the local irritative effect on the eye was evaluated using the left eye. After surface anesthesia with oxybupranol (Benoxil 0.4% instillation solution), the intraocular pressure was measured before ocular instillation ) and 1, 2, 3, 4, 6 and 8 hr after the instillation using a pneumatonometer (Alcon Ltd.). In addition, the local irritative effect on the eye was evaluated by scoring conjunctival congestion, conjunctival edema, cornea opacity, iris congestion, excretion and eye closure performance. For the evaluation, phosphate buffer was used for the solvent control group, and isopropyl unoprostone (Rescula eye drops, Santen Pharmaceutical Co., Ltd.) was used for comparison. Six animals were used for each group and the results were expressed as average.

half-life ([1]; iv, 50 ug/kg): 1.92 ± 0.517 h
half-life ([1]; iv, 300 ug/kg): 2.63 ± 0.25 h
half-life ([1]; rats, intravenous, summary of Table 3): 1 to 2 h
Ki [3]: 0.0066 µM
affinity for binding to human EP4 higher than that to human IP ([3]; ratio of Ki values): ≥ 100 fold
affinity for binding to human EP4 higher than those to human EP1, EP2 and EP3 receptors ([3]; ratio of Ki values): ≥ 60 fold
Ki [4]: 0.41 µM
Compound: Cc1cccc([C@@H](C)[C@H](O)/C=C/[C@@H]2[C@@H]3[C@H](C[C@H]2O)O/C(=C\CCCc2nnn[nH]2)C3(F)F)c1 [Compound F, 4-[(Z)-(1S,5R,6R,7R)-6-[(1E,3R,4R)-3-hydroxy-4-(m-tolyl)-1-pentenyl]-7-hydroxy-2-oxa-4,4-difluoro-bicyclo[3.3.0]octan-3-ylidene]-1-(tetrazol-5-yl)butane]
effect on stool score, colonic tissue injury and shortening of the large intestine [2]: a suppressive tendency or significant suppressive effect on these events
local irritant effect on the eye [5]: conjunctival edema and eye closure were observed 1 hr after the instillation in some animals
